Several values for one entry are separate records, joined by “and”; a condition that tells them apart may be missing. Equal values may be shown once.

The target in one experiment is T1, wild-type desmin (Homo sapiens, UniProt P17661).
T1 construct: expressed in transfected cells; host or cells: HeLa, transient
Nature of the experiment: WB degradation of wild-type desmin in HeLa cells. To be noted: exogenously expressed. It is filed as cell-based. How it is done: Adherent cells were washed with phosphate-buffered saline (PBS) and cell pellets were lysed in SDS-based sample buffer (277.8 mM Tris-HCI, pH 6.8, 4.4% LDS, 44.4% (v/v) glycerol) containing beta-mercaptoethanol. Alternatively, cell pellets or protein supernatants were lysed in 5X Laemmli sample buffer. Whole-cell lysates were separated using SDS-PAGE, and transferred onto polyvinyllidene difluoride membranes at 100 V for 2 h at 4 °C. The membrane was incubated with a blocking solution consisting 4% skim milk in PBS solution for 30 min at room temperature and incubated with primary antibodies overnight, followed by incubation with host-specific HRP-conjugated secondary antibodies (1:10000 dilution). For signal detection, the membrane was developed with a mixture of ECL solution (Thermo Fisher Scientific) using X-ray films. Densitometry of developed bands was measured and analyzed with ImageJ (NIH, Bethesda).
Supplementary Fig. 5. AUTOTACs selectively target pathological aggregation-prone proteins for autophagic degradation. (a) WB in HEK293T cells treated with PBA-1105 (1 μM) and MG132 (1 μM, 24 h) at the indicated time points. (b) ICC of HeLa cells treated with the indicated compounds (1 μM, 24 h). Scale bar, 10 μm. (c) WB in HEK293T cells treated with PBA-1105 (500 nM, 24 h) and MG132 (1 μM, 24 h) under siRNA-mediated knockdown of p62 or ATG7 (20 nM, 48 h). (d) ICC in HeLa cells transiently expressing WIPI2-GFP and treated with Anle138b-F105 (1 μM, 24 h). Scale bar, 10 μm. (e) ICC in HeLa cells treated with […]
nM, 24 h). (g, h) WB in HeLa cells transiently expressing wild type or mutant (L385P) desmin-flag with LacZ-myc and treated with PBA-1105, PBA-1105b or Anle138b-F105 at the […]

A further experiment deals with Ub^+ and p62^+ puncta. The experiment is described as follows: ICC of Ub (FK2) and p62 puncta in HeLa cells. Format: cell-based. As to conditions: Fig. 4g; for FK2 (Ub) / p62 colocalization, cells counted per 50 cells (individual replicates): listed as PBA. How it is done:
Fig. 4 Targeted autophagic delivery and degradation of misfolded protein cargoes using AUTOTACs with aggregate-binding warhead. a A model illustrating the mode of action of aggregate-targeting AUTOTAC. b Chemical structures of PBA-1105, PBA-1106, Anle138b-F105 and PBA-1105b. c In vitro p62 oligomerization assay in HEK293T cells incubated with the indicated compounds in (b). d WB in HEK293T cells treated with MG132 (1 μM, 24 h), HCQ (10 μM, 24 h), PBA-1105, YTK-1105, and PBA (1 μM, 24 h). e Identical to (d), but with Anle-F105. f ICC of HeLa cells treated with HCQ (10 μM, 24 h), MG132 (2 μM, 18 h) or both in the presence of PBA-1106, YOK-1106 or PBA (1 μM, 24 h). Scale bar, 10 μm. g Quantification of (f) (n = 3, 50 cells). h ICC of HeLa cells treated with Anle138b-F105 (1 μM, 24 h). Scale bar, 10 μm. i Quantification of (h) (n = 3, 50 cells). When indicated, n = 3 biologically independent experiments each counting 50 cells. Data are presented as mean values ± SD where relevant. P-values (from a two-sided unpaired t test): ***P < 7.66E−05. Source data are provided with this paper.
Cells were cultured on coverslips coated with poly-L-lysine (Sigma) to observe cellular localization of proteins. Using 4% paraformaldehyde in PBS (pH 7.4), the cells were fixed for 15 min at room temperature and washed three times for 5 min with PBS. After fixing, the cells were permeabilized with 0.5% Triton X-100 in PBS solution for 15 min and washed three times with PBS for 5 min. The cells were blocked containing 2% BSA in PBS solution for 1 h at room temperature. Subsequently, the cells were incubated with primary antibody diluted in 2% BSA/PBS solution overnight at 4 °C, followed by washing the cells three times for 10 min with PBS and incubated with Alexa Fluor-conjugated secondary antibody diluted in 2% BSA/PBS for 30 min at room temperature. Using a DAPI-containing mounting medium (Vector Laboratories), the coverslips were mounted on glass slides. Confocal images were taken by laser scanning confocal microscope 510 Meta (Zeiss) and analyzed by Zeiss LSM Image Browser (ver. 4.2.0.121). […] Quantification results are shown as mean ± S.D. or S.E.M. of three independent experiments

T1 sequence (P17661 whole entry): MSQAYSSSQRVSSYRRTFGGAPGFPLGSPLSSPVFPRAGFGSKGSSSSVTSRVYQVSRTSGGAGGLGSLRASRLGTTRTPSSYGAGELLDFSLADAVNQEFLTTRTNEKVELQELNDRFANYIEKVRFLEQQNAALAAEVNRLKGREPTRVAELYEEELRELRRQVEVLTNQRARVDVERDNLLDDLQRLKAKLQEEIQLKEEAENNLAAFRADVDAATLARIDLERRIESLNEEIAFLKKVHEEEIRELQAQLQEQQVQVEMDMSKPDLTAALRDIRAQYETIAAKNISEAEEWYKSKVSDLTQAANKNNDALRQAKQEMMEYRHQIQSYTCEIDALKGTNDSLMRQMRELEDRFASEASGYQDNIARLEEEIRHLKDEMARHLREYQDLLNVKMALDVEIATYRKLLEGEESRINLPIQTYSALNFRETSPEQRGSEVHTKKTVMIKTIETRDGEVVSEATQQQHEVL

`O=C(CCCc1ccccc1)NCCOCCOCCOCCNCc1ccc(OCc2ccccc2)c(OCc2ccccc2)c1` [PBA-1105]: at wild-type desmin, the “degradation of wild-type desmin” value is “not wild-type desmin”.

Turning to `O=C(O)CCCc1ccccc1` [4-PBA, 4-phenylbutyric acid], the “FK2 (Ub) / p62 colocalization, AVG of cells per 50 cells” value in the experiment with Ub^+ and p62^+ puncta (no co-treatment (con)) worked out at 6.333; in the experiment on Ub^+ and p62^+ puncta (with HCQ), 19; with Ub^+ and p62^+ puncta (with MG132), 24; in the experiment on Ub^+ and p62^+ puncta (with MG132+HCQ) it was 35.3333. Moreover, the “FK2 (Ub) / p62 colocalization, percentage AVG” value with Ub^+ and p62^+ puncta (no co-treatment (con)) came out at 12.6667 percentage; with Ub^+ and p62^+ puncta (with HCQ), 38 percentage; with Ub^+ and p62^+ puncta (with MG132) it was 48 percentage; in the experiment on Ub^+ and p62^+ puncta (with MG132+HCQ), 70.6667 percentage. Besides, the “FK2 (Ub) / p62 colocalization, cells counted per 50 cells (individual replicates)” value was 7 and 9 and 3 in the experiment on Ub^+ and p62^+ puncta (no co-treatment (con), count out of 50 cells); 25 and 15 and 17 in the experiment with Ub^+ and p62^+ puncta (with HCQ, count out of 50 cells); 32 and 39 and 35 in the experiment on Ub^+ and p62^+ puncta (with MG132+HCQ, count out of 50 cells); 13 and 33 and 26 with Ub^+ and p62^+ puncta (with MG132, count out of 50 cells).

The record behind these values is article PMC8850458, “The AUTOTAC chemical biology platform for targeted protein degradation via the autophagy-lysosome system” (Nature Communications, 2022).
